Values belong to the molecule of their own block, whether it stands above or below them.
Columns and labels:
OVCAR-3 = assay: Cytotoxicity against human OVCAR-3 cells in presence of metformin and carboplatin relative to control; type: functional
[1] = biological target: Protein-tyrosine kinase 2-beta (Homo sapiens, UniProt Q14289); assay: Inhibition of pyk2 (unknown origin)
Focal adhesion kinase 1 [2] = biological target: T1, Focal adhesion kinase 1 (Homo sapiens, UniProt Q05397)
Description: Inhibition of FAK (unknown origin) (410 to 689 residues) assessed as reduction in poly(Glu-Tyr) phosphorylation using poly (Glu,Tyr) as substrate by ELISA-based assay

BT-474 = assay: Antiproliferative activity against human BT-474 cells incubated for 72 hrs by MTT assay; type: functional, cell-based; details: BT-474, 72 h
MDA-MB-231 = assay: Antiproliferative activity against human MDA-MB-231 cells incubated for 72 hrs by MTT assay; type: functional, cell-based; details: MDA-MB-231, 72 h
T47D = assay: Antiproliferative activity against human T-47D cells incubated for 72 hrs by MTT assay; type: functional, cell-based
MCF7 = assay: Antiproliferative activity against human MCF7 cells incubated for 72 hrs by MTT assay; type: functional, cell-based; details: MCF7, 72 h
Focal adhesion kinase 1 [3] = biological target: T1, Focal adhesion kinase 1; assay: Inhibition of FAK in human U87MG cells assessed as reduction in phosphorylation at Y397 residue incubated for 30 mins by Western blot analysis
Focal adhesion kinase 1 [4] = biological target: T1, Focal adhesion kinase 1; assay: Inhibition of FAK in human A549 cells assessed as reduction in phosphorylation at Y397 residue incubated for 30 mins by Western blot analysis
Focal adhesion kinase 1 [5] = biological target: T1, Focal adhesion kinase 1; assay: Inhibition of FAK in human OVCAR8 cells assessed as reduction in phosphorylation at Y397 residue incubated for 30 mins by Western blot analysis
RD = assay: Cytotoxicity against human RD cells incubated for 96 hrs by DIMSCAN method; type: functional, cell-based
[6] = biological target: von Hippel-Lindau disease tumor suppressor/Focal adhesion kinase 1 (Homo sapiens) (UniProt Q05397+P40337); assay: Induction of VHL-mediated FAK degradation in human PC3 cells at 10 to 10000 nM incubated for 24 hrs by Western blot analysis relative to control; type: cell-based; details: PC-3, dose 10-10000 nM
Sequence of von Hippel-Lindau disease tumor suppressor/Focal adhesion kinase 1 (Homo sapiens) (P40337 whole entry partner): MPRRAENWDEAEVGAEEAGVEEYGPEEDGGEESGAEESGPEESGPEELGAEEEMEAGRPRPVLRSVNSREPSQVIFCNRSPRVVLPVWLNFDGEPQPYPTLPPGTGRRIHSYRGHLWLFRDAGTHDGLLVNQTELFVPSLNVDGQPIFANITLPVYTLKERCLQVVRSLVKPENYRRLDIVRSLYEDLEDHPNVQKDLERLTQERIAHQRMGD
Sequence of von Hippel-Lindau disease tumor suppressor/Focal adhesion kinase 1 (Homo sapiens) (Q05397 2-1052 limits assumed): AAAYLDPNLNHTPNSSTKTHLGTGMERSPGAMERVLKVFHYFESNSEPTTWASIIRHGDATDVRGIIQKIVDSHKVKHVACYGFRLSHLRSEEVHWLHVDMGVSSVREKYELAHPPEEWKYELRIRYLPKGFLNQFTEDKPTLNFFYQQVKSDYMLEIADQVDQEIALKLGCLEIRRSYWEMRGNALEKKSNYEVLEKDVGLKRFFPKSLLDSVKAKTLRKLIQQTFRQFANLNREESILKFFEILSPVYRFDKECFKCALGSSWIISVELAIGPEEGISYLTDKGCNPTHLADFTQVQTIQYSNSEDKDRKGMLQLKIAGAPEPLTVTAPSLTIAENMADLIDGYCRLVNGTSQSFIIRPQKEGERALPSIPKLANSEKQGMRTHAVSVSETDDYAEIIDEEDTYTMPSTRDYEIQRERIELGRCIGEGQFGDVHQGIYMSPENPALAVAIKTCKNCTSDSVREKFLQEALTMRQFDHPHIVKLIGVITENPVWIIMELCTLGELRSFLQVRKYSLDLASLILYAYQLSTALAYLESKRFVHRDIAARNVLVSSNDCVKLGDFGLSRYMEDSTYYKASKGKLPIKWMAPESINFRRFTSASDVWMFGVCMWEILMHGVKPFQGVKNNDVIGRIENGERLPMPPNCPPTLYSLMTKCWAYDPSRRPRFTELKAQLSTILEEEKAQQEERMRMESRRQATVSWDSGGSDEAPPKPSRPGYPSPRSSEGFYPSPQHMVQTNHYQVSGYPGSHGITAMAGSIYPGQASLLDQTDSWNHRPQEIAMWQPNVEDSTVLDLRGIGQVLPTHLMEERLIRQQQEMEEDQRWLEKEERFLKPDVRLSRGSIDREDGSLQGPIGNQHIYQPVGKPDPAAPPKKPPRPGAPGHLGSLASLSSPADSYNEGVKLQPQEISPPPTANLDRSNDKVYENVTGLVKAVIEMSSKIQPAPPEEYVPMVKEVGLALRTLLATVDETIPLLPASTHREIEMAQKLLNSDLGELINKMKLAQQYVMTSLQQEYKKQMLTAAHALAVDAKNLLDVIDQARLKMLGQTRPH

T1 sequence (Q05397 whole entry): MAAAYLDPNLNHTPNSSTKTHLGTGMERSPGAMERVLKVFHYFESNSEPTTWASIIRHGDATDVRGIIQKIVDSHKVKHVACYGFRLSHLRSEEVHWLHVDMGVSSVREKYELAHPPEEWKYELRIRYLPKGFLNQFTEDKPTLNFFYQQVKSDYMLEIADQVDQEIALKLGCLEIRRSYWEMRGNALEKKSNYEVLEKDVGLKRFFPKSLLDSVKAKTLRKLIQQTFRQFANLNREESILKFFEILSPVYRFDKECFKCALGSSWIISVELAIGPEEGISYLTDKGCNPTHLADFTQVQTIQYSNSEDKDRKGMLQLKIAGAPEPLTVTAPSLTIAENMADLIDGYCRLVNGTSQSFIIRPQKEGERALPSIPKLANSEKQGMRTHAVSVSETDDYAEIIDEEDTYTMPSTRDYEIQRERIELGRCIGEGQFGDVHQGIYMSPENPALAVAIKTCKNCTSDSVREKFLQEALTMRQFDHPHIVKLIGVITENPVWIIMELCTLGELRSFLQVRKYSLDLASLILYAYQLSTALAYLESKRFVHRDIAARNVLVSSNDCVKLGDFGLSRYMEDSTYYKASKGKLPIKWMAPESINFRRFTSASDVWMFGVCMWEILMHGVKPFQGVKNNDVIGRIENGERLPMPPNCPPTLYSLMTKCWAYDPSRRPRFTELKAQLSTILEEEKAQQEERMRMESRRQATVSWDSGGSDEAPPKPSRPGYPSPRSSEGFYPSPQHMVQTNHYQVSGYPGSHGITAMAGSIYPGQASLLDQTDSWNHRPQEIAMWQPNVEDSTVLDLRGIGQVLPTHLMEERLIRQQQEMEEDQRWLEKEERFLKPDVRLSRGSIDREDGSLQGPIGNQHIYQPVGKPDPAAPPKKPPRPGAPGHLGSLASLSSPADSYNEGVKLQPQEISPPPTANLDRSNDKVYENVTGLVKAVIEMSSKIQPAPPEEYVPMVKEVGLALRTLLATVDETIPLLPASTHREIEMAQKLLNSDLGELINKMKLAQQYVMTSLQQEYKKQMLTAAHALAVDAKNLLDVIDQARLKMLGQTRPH
Sequence of Protein-tyrosine kinase 2-beta (Q14289 whole entry): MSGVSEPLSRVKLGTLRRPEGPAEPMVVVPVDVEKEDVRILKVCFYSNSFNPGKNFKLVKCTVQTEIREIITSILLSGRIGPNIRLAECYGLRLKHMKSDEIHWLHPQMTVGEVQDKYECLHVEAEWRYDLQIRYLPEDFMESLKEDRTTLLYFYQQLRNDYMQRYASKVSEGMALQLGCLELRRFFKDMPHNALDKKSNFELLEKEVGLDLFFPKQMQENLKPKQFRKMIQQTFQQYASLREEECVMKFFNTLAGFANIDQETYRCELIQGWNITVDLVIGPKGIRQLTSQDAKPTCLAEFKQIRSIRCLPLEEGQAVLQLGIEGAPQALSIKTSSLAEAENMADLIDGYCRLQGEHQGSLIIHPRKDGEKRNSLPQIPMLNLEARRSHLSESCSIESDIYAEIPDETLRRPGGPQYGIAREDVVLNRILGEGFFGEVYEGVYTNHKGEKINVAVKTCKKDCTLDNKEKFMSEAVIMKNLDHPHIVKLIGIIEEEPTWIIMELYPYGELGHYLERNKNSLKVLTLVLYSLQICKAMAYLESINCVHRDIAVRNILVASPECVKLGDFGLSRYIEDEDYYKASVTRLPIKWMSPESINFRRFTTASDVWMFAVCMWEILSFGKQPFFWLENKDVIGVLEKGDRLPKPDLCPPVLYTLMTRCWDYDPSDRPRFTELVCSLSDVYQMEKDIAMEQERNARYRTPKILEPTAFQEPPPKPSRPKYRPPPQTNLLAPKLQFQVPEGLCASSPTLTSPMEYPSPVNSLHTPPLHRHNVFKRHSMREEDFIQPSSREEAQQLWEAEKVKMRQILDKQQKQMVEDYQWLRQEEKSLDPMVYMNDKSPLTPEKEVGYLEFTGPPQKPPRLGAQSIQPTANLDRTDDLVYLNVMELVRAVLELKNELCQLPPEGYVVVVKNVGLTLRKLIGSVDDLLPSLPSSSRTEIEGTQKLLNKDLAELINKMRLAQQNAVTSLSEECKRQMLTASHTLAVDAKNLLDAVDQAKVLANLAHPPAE

IC50 [1]: 1000 nM
IC50 (Focal adhesion kinase 1 [2]): 4 nM
SMILES: CS(=O)(=O)c1cccc(CNc2nc(Nc3ccc4c(c3)CC(=O)N4)ncc2C(F)(F)F)c1
Activity (OVCAR-3): 94%

IC50 (BT-474): 20100 nM
IC50 (MDA-MB-231): 7500 nM
IC50 (T47D): 25100 nM
IC50 (MCF7): 15200 nM
SMILES: CC1=CC[C@@]2(O)[C@H](CC[C@]2(C)O)C(C)(C)[C@@H]1CC[C@H]1[C@]2(C)CC[C@H](OC(=O)c3ccc(Cl)c(Cl)c3)C(C)(C)O[C@H]2CC[C@@]1(C)O

IC50 (Focal adhesion kinase 1 [3]): 8.5 nM
IC50 (Focal adhesion kinase 1 [4]): 12 nM
IC50 (Focal adhesion kinase 1 [5]): 15 nM
SMILES: CONC(=O)c1ccccc1Nc1cc(Nc2cc(C)nn2C(C)C)ncc1Cl [GSK-2256098]

SMILES: CNC(=O)c1ccccc1Nc1cc(Nc2ccc(N3CCOCC3)cc2OC)ncc1C(F)(F)F [VS-4718]
IC50 (RD): 1220 nM

Emax [6]: 99%
SMILES: Cc1ncsc1-c1ccc(CNC(=O)[C@@H]2C[C@@H](O)CN2C(=O)[C@@H](NC(=O)CCOCCOc2ccc(Nc3ncc(C(F)(F)F)c(NCc4cccc(N(C)S(C)(=O)=O)c4)n3)cc2)C(C)(C)C)cc1

— ChEMBL document CHEMBL4813912, “Progress in the Development of Small Molecular Inhibitors of Focal Adhesion Kinase (FAK)” (J Med Chem, 2020)
